Measured values published in PubChem BioAssay (NCI).
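96-well plates; 48 h exposure; 5 concentrations. Endpoints by linear interpolation between flanking doses. Not reached: highest tested concentration assigned. Here, GI50 denotes the concentration required for 50% inhibition of growth. TGI: concentration producing complete growth inhibition.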

Tests used:
Experiment in all cases: NCI tumour cell line growth inhibition, 48 h
HCC-2998 colon = system: HCC-2998 colon
SW-620 colon = system: SW-620 colon
OVCAR-5 ovarian = system: OVCAR-5 ovarian
MDA-MB-231 breast = system: MDA-MB-231 breast
UACC-257 melanoma = system: UACC-257 melanoma
TK-10 renal = system: TK-10 renal
HCT-15 colon = system: HCT-15 colon
UACC-62 melanoma = system: UACC-62 melanoma
HT29 colon = system: HT29 colon
M14 melanoma = system: M14 melanoma
HS 578T breast = system: HS 578T breast
SN12C renal = system: SN12C renal
SK-MEL-2 melanoma = system: SK-MEL-2 melanoma
SF-295 CNS = system: SF-295 CNS
KM12 colon = system: KM12 colon
CAKI-1 renal = system: CAKI-1 renal
A549 NSCLC = system: A549 NSCLC
SF-268 CNS = system: SF-268 CNS
MOLT-4 leukemia = system: MOLT-4 leukemia
U251 CNS = system: U251 CNS
OVCAR-3 ovarian = system: OVCAR-3 ovarian
SF-539 CNS = system: SF-539 CNS
ACHN renal = system: ACHN renal
HOP-62 NSCLC = system: HOP-62 NSCLC
IGROV1 ovarian = system: IGROV1 ovarian
RXF 393 renal = system: RXF 393 renal
SNB-75 CNS = system: SNB-75 CNS
LOX IMVI melanoma = system: LOX IMVI melanoma
HCT-116 colon = system: HCT-116 colon
DU-145 prostate = system: DU-145 prostate
NCI-H522 lung = system: NCI-H522 lung
MCF7 breast = system: MCF7 breast
SR leukemia = system: SR leukemia
SNB-19 CNS = system: SNB-19 CNS
NCI-H23 lung = system: NCI-H23 lung
NCI-H226 lung = system: NCI-H226 lung
MDA-MB-435 = system: MDA-MB-435
SK-MEL-5 melanoma = system: SK-MEL-5 melanoma
BT-549 breast = system: BT-549 breast
SK-OV-3 ovarian = system: SK-OV-3 ovarian
A498 renal = system: A498 renal
MALME-3M melanoma = system: MALME-3M melanoma
EKVX NSCLC = system: EKVX NSCLC
NCI-H460 lung = system: NCI-H460 lung
COLO 205 colon = system: COLO 205 colon
HOP-92 NSCLC = system: HOP-92 NSCLC
K-562 leukemia = system: K-562 leukemia
OVCAR-8 ovarian = system: OVCAR-8 ovarian
PC-3 prostate = system: PC-3 prostate
UO-31 renal = system: UO-31 renal
SK-MEL-28 melanoma = system: SK-MEL-28 melanoma
CCRF-CEM leukemia = system: CCRF-CEM leukemia
HL-60(TB) leukemia = system: HL-60(TB) leukemia
786-0 renal = system: 786-0 renal
OVCAR-4 ovarian = system: OVCAR-4 ovarian
NCI/ADR-RES ovarian = system: NCI/ADR-RES ovarian
T-47D breast = system: T-47D breast
RPMI-8226 leukemia = system: RPMI-8226 leukemia

In the case of COc1ccc(/C=C(\C#N)c2ccc(OC)cc2)cc1, the GI50 (HCC-2998 colon) was 7.38 µM, the TGI (HCC-2998 colon) was > 100 µM and the GI50 (SW-620 colon) was 5.81 µM. The TGI (SW-620 colon) was > 100 µM, the GI50 (OVCAR-5 ovarian) was 62.3 µM and the TGI (OVCAR-5 ovarian) was > 100 µM. The GI50 (MDA-MB-231 breast) was 33.6 µM, the TGI (MDA-MB-231 breast) was > 100 µM and the GI50 (UACC-257 melanoma) was > 100 µM. The TGI (UACC-257 melanoma) was > 100 µM, the GI50 (TK-10 renal) was > 100 µM and the TGI (TK-10 renal) was > 100 µM. For the same compound, the GI50 (HCT-15 colon) was 4.56 µM, the TGI (HCT-15 colon) was > 100 µM and the GI50 (UACC-62 melanoma) was 10.3 µM. The TGI (UACC-62 melanoma) was > 100 µM, the GI50 (HT29 colon) was 7.1 µM and the TGI (HT29 colon) was > 100 µM. The GI50 (M14 melanoma) was 8.18 µM, the TGI (M14 melanoma) was > 100 µM and the GI50 (HS 578T breast) was 82.2 µM. For the same compound, the TGI (HS 578T breast) was > 100 µM, the GI50 (SN12C renal) was 81.7 µM and the TGI (SN12C renal) was > 100 µM. The GI50 (SK-MEL-2 melanoma) was > 100 µM, the TGI (SK-MEL-2 melanoma) was > 100 µM and the GI50 (SF-295 CNS) was 8.01 µM. For the same compound, the TGI (SF-295 CNS) was > 100 µM, the GI50 (KM12 colon) was 3.87 µM and the TGI (KM12 colon) was > 100 µM. The GI50 (CAKI-1 renal) was 13.1 µM, the TGI (CAKI-1 renal) was > 100 µM and the GI50 (A549 NSCLC) was > 100 µM. The TGI (A549 NSCLC) was > 100 µM, the GI50 (SF-268 CNS) was > 100 µM and the TGI (SF-268 CNS) was > 100 µM. The GI50 (MOLT-4 leukemia) was 5.49 µM, the TGI (MOLT-4 leukemia) was > 100 µM and the GI50 (U251 CNS) was 20.6 µM. The TGI (U251 CNS) was > 100 µM, the GI50 (OVCAR-3 ovarian) was 7.59 µM and the TGI (OVCAR-3 ovarian) was 52 µM. The GI50 (SF-539 CNS) was 20.7 µM, the TGI (SF-539 CNS) was > 100 µM and the GI50 (ACHN renal) was 76.1 µM. For the same compound, the TGI (ACHN renal) was > 100 µM, the GI50 (HOP-62 NSCLC) was 69.9 µM and the TGI (HOP-62 NSCLC) was > 100 µM. For the same compound, the GI50 (IGROV1 ovarian) was 46.1 µM, the TGI (IGROV1 ovarian) was > 100 µM and the GI50 (RXF 393 renal) was 13.7 µM. The TGI (RXF 393 renal) was > 100 µM, the GI50 (SNB-75 CNS) was 87.6 µM and the TGI (SNB-75 CNS) was > 100 µM. For the same compound, the GI50 (LOX IMVI melanoma) was 13.3 µM, the TGI (LOX IMVI melanoma) was > 100 µM and the GI50 (HCT-116 colon) was 7.15 µM. For the same compound, the TGI (HCT-116 colon) was > 100 µM, the GI50 (DU-145 prostate) was 14.9 µM and the TGI (DU-145 prostate) was > 100 µM. The GI50 (NCI-H522 lung) was 42.8 µM, the TGI (NCI-H522 lung) was > 100 µM and the GI50 (MCF7 breast) was 41.5 µM. The TGI (MCF7 breast) was > 100 µM, the GI50 (SR leukemia) was 2.07 µM and the TGI (SR leukemia) was > 100 µM. The GI50 (SNB-19 CNS) was 82.8 µM, the TGI (SNB-19 CNS) was > 100 µM and the GI50 (NCI-H23 lung) was 9.77 µM. The TGI (NCI-H23 lung) was > 100 µM, the GI50 (NCI-H226 lung) was > 100 µM and the TGI (NCI-H226 lung) was > 100 µM. It also gave a GI50 (MDA-MB-435) of 0.563 µM, a TGI (MDA-MB-435) of 18.4 µM and a GI50 (SK-MEL-5 melanoma) of 4.85 µM. The TGI (SK-MEL-5 melanoma) was > 100 µM, the GI50 (BT-549 breast) was 22.9 µM and the TGI (BT-549 breast) was > 100 µM. The GI50 (SK-OV-3 ovarian) was 42 µM, the TGI (SK-OV-3 ovarian) was > 100 µM and the GI50 (A498 renal) was > 100 µM. The TGI (A498 renal) was > 100 µM, the GI50 (MALME-3M melanoma) was > 100 µM and the TGI (MALME-3M melanoma) was > 100 µM. For the same compound, the GI50 (EKVX NSCLC) was 14.5 µM, the TGI (EKVX NSCLC) was > 100 µM and the GI50 (NCI-H460 lung) was 7.31 µM. For the same compound, the TGI (NCI-H460 lung) was > 100 µM, the GI50 (COLO 205 colon) was 21.1 µM and the TGI (COLO 205 colon) was > 100 µM. The GI50 (HOP-92 NSCLC) was 23.5 µM, the TGI (HOP-92 NSCLC) was > 100 µM and the GI50 (K-562 leukemia) was 2.78 µM. The TGI (K-562 leukemia) was > 100 µM, the GI50 (OVCAR-8 ovarian) was 91.8 µM and the TGI (OVCAR-8 ovarian) was > 100 µM. The GI50 (PC-3 prostate) was 30 µM, the TGI (PC-3 prostate) was > 100 µM and the GI50 (UO-31 renal) was > 100 µM. The TGI (UO-31 renal) was > 100 µM, the GI50 (SK-MEL-28 melanoma) was > 100 µM and the TGI (SK-MEL-28 melanoma) was > 100 µM. For the same compound, the GI50 (CCRF-CEM leukemia) was 9.47 µM, the TGI (CCRF-CEM leukemia) was > 100 µM and the GI50 (HL-60(TB) leukemia) was 13.5 µM. For the same compound, the TGI (HL-60(TB) leukemia) was > 100 µM, the GI50 (786-0 renal) was > 100 µM and the TGI (786-0 renal) was > 100 µM. The GI50 (OVCAR-4 ovarian) was 27.4 µM, the TGI (OVCAR-4 ovarian) was > 100 µM and the GI50 (NCI/ADR-RES ovarian) was 3.13 µM. For the same compound, the TGI (NCI/ADR-RES ovarian) was 29.3 µM, the GI50 (T-47D breast) was 32.2 µM and the TGI (T-47D breast) was > 100 µM. For the same compound, the GI50 (RPMI-8226 leukemia) was 9.48 µM and the TGI (RPMI-8226 leukemia) was > 100 µM.
